How the values were obtained:
Experiment in all cases: relative viability (nuclei count vs DMSO), 5 days (fraction); higher = more cells survive
NCI-H1734 = test system: NCI-H1734
Outline: (§1)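 Lung cancer cell lines were seeded in 1536-well plates and dosed by pin tool the next day, with either a single drug or a fixed anchor-drug dose combined with five library-drug doses (not always all listed) spaced in √10 steps. Five days later, one step fixed the cells and stained their nuclei (final 0.05% Triton X-100, 1% formaldehyde, 1 ug/ml Hoechst), and nuclei were counted on 4× images. Relative viability is the nuclei count in treated wells divided by the count in vehicle wells, and each value is the median of duplicate plates.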

SW 1573 = test system: SW 1573
Outline: as §1

BEN = test system: BEN
Outline: as §1

HCC-44 = test system: HCC-44
Outline: as §1

NCI-H358 = test system: NCI-H358
Outline: as §1

NCI-H1915 = test system: NCI-H1915
Outline: as §1

NCI-H1755 = test system: NCI-H1755
Outline: as §1

NCI-H3122 = test system: NCI-H3122
Outline: as §1

NCI-H2170 = test system: NCI-H2170
Outline: as §1

LU99A = test system: LU99A
Outline: as §1

Work on `Cc1cn(-c2cc(NC(=O)c3ccc(C)c(Nc4nccc(-c5cccnc5)n4)c3)cc(C(F)(F)F)c2)cn1` [Nilotinib] + Cc1cc(Nc2cc(N3CCN(C)CC3)nc(Sc3ccc(NC(=O)C4CC4)cc3)n2)n[nH]1 [Tozasertib] (partner 0.1 µM) yielded a relative viability (NCI-H1734; first compound 0.001 µM) of 0.251, a relative viability (NCI-H1734; first compound 0.003162 µM) of 0.273 and a relative viability (NCI-H1734; first compound 0.01 µM) of 0.324. For the same compound, the relative viability (NCI-H1734; first compound 0.03162 µM) was 0.231, the relative viability (NCI-H1734; first compound 0.1 µM) was 0.214 and the relative viability (SW 1573; first compound 0.001 µM) was 0.194. It also gave a relative viability (SW 1573; first compound 0.003162 µM) of 0.165, a relative viability (SW 1573; first compound 0.01 µM) of 0.211 and a relative viability (SW 1573; first compound 0.03162 µM) of 0.173. It also gave a relative viability (SW 1573; first compound 0.1 µM) of 0.15, a relative viability (BEN; first compound 0.001 µM) of 0.498 and a relative viability (BEN; first compound 0.003162 µM) of 0.494. It also gave a relative viability (BEN; first compound 0.01 µM) of 0.456, a relative viability (BEN; first compound 0.03162 µM) of 0.408 and a relative viability (BEN; first compound 0.1 µM) of 0.509. For the same compound, the relative viability (HCC-44; first compound 0.001 µM) was 0.615, the relative viability (HCC-44; first compound 0.003162 µM) was 0.842 and the relative viability (HCC-44; first compound 0.01 µM) was 0.948. The relative viability (HCC-44; first compound 0.03162 µM) was 0.621, the relative viability (HCC-44; first compound 0.1 µM) was 0.487 and the relative viability (NCI-H358; first compound 0.001 µM) was 0.0908. It also gave a relative viability (NCI-H358; first compound 0.003162 µM) of 0.0985, a relative viability (NCI-H358; first compound 0.01 µM) of 0.0881 and a relative viability (NCI-H358; first compound 0.03162 µM) of 0.101. For the same compound, the relative viability (NCI-H358; first compound 0.1 µM) was 0.116, the relative viability (NCI-H1915; first compound 0.001 µM) was 0.366 and the relative viability (NCI-H1915; first compound 0.003162 µM) was 0.484. It also gave a relative viability (NCI-H1915; first compound 0.01 µM) of 0.457, a relative viability (NCI-H1915; first compound 0.03162 µM) of 0.32 and a relative viability (NCI-H1915; first compound 0.1 µM) of 0.311. For the same compound, the relative viability (NCI-H1755; first compound 0.001 µM) was 0.537, the relative viability (NCI-H1755; first compound 0.003162 µM) was 0.548 and the relative viability (NCI-H1755; first compound 0.01 µM) was 0.483. For the same compound, the relative viability (NCI-H1755; first compound 0.03162 µM) was 0.578, the relative viability (NCI-H1755; first compound 0.1 µM) was 0.415 and the relative viability (NCI-H3122; first compound 0.001 µM) was 0.364. For the same compound, the relative viability (NCI-H3122; first compound 0.003162 µM) was 0.519, the relative viability (NCI-H3122; first compound 0.01 µM) was 0.436 and the relative viability (NCI-H3122; first compound 0.03162 µM) was 0.374. The relative viability (NCI-H3122; first compound 0.1 µM) was 0.18, the relative viability (NCI-H2170; first compound 0.001 µM) was 0.734 and the relative viability (NCI-H2170; first compound 0.003162 µM) was 0.77. It also gave a relative viability (NCI-H2170; first compound 0.01 µM) of 0.795, a relative viability (NCI-H2170; first compound 0.03162 µM) of 0.599 and a relative viability (NCI-H2170; first compound 0.1 µM) of 0.55. The relative viability (LU99A; first compound 0.001 µM) was 0.232, the relative viability (LU99A; first compound 0.003162 µM) was 0.268 and the relative viability (LU99A; first compound 0.01 µM) was 0.211. For the same compound, the relative viability (LU99A; first compound 0.03162 µM) was 0.256 and the relative viability (LU99A; first compound 0.1 µM) was 0.226.
